In patent US20250332178A1, “METHODS OF TREATING MYCOBACTERIAL INFECTIONS USING TETRACYCLINE COMPOUNDS” (priority 2018, published 2025):
Values after ≈ are worked out from the molar mass of the structure shown. Where two headings read alike, the source gives them in different places.

Tests used:
Test in all cases: MIC (CLSI broth dilution), RGM isolates
Assay type in all cases: cell-based
M. immunogenum group = system: M. immunogenum group
M. smegmatis group = conditions: Mycolicibacterium smegmatis
M. abscessus complex = conditions: Mycobacteroides abscessus
M. chelonae = conditions: Mycobacteroides chelonae

CC[C@H]1OC(=O)[C@H](C)[C@@H](O[C@H]2C[C@@](C)(OC)[C@@H](O)[C@H](C)O2)[C@H](C)[C@@H](O[C@@H]2O[C@H](C)C[C@H](N(C)C)[C@H]2O)[C@](C)(OC)C[C@@H](C)C(=O)[C@H](C)[C@@H](O)[C@]1(C)O [clarithromycin]
MIC (M. immunogenum group; 336 h, isolate 38, M. immunogenum, extended reading, up to/including 14 days, read-out: MIC, CLA Extended): 2 µg/mL (≈ 2.67 µM) | MIC (M. immunogenum group; isolate 35, M. immunogenum, initial reading, generally 3-4 days, read-out: MIC, CLA Initial): 0.25 µg/mL (≈ 0.334 µM) | MIC (M. immunogenum group; isolate 36, M. immunogenum, initial reading, generally 3-4 days, read-out: MIC, CLA Initial): 0.12 µg/mL (≈ 0.16 µM) | MIC (M. immunogenum group; isolate 37, M. immunogenum, initial reading, generally 3-4 days, read-out: MIC, CLA Initial): 1 µg/mL (≈ 1.34 µM) | MIC (M. immunogenum group; isolate 38, M. immunogenum, initial reading, generally 3-4 days, read-out: MIC, CLA Initial): 0.5 µg/mL (≈ 0.668 µM) | MIC (M. smegmatis group; 144 h, isolate 49, M. goodii, extended reading (6 d), read-out: MIC, CLA Extended): > 32 µg/mL | MIC (M. smegmatis group; isolate 49, M. goodii, initial reading, generally 3-4 days, read-out: MIC, CLA Initial): 16 µg/mL (≈ 21.4 µM) | MIC (M. smegmatis group; isolate 50, M. wolinskyi, initial reading, generally 3-4 days, read-out: MIC, CLA Initial): > 32 µg/mL | MIC (M. abscessus complex; 168 h, isolate 12, Type 6 abscessus, extended reading (7 d), read-out: MIC, CLA Extended): > 32 µg/mL | MIC (M. abscessus complex; 240 h, isolate 7, Type 1 abscessus, extended reading (10 d), read-out: MIC, CLA Extended): > 32 µg/mL | MIC (M. abscessus complex; 240 h, isolate 9, Type 1 abscessus, extended reading (10 d), read-out: MIC, CLA Extended): > 32 µg/mL | MIC (M. abscessus complex; 240 h, isolate 11, Type 6 abscessus, extended reading (10 d), read-out: MIC, CLA Extended): > 32 µg/mL | MIC (M. abscessus complex; 240 h, isolate 15, Type 7 abscessus, extended reading (10 d), read-out: MIC, CLA Extended): > 32 µg/mL | MIC (M. abscessus complex; 240 h, isolate 16, Type 7 abscessus, extended reading (10 d), read-out: MIC, CLA Extended): > 32 µg/mL | MIC (M. abscessus complex; 240 h, isolate 17, Type 8 abscessus, extended reading (10 d), read-out: MIC, CLA Extended): > 32 µg/mL | MIC (M. abscessus complex; 264 h, isolate 8, Type 1 abscessus, extended reading (11 d), read-out: MIC, CLA Extended): > 32 µg/mL | MIC (M. abscessus complex; 264 h, isolate 10, Type 1 abscessus, extended reading (11 d), read-out: MIC, CLA Extended): 32 µg/mL (≈ 42.8 µM) | MIC (M. abscessus complex; 264 h, isolate 13, Type 6 abscessus, extended reading (11 d), read-out: MIC, CLA Extended): > 32 µg/mL | MIC (M. abscessus complex; 336 h, isolate 1, MAB30, extended reading, up to/including 14 days, read-out: MIC, CLA Extended): 1 µg/mL (≈ 1.34 µM) | MIC (M. abscessus complex; 336 h, isolate 2, MAB30, extended reading, up to/including 14 days, read-out: MIC, CLA Extended): 2 µg/mL (≈ 2.67 µM) | MIC (M. abscessus complex; 336 h, isolate 3, MAB30, extended reading, up to/including 14 days, read-out: MIC, CLA Extended): 2 µg/mL (≈ 2.67 µM) | MIC (M. abscessus complex; 336 h, isolate 4, massiliense, extended reading, up to/including 14 days, read-out: MIC, CLA Extended): 2 µg/mL (≈ 2.67 µM) | MIC (M. abscessus complex; 336 h, isolate 5, massiliense/subsp. abs hybrid, extended reading, up to/including 14 days, read-out: MIC, CLA Extended): ≤ 0.06 µg/mL | MIC (M. abscessus complex; 336 h, isolate 14, Type 6 abscessus, extended reading (14 d), read-out: MIC, CLA Extended): > 32 µg/mL | MIC (M. abscessus complex; isolate 1, MAB30, initial reading, generally 3-4 days, read-out: MIC, CLA Initial): ≤ 0.06 µg/mL | MIC (M. abscessus complex; isolate 2, MAB30, initial reading, generally 3-4 days, read-out: MIC, CLA Initial): ≤ 0.06 µg/mL | MIC (M. abscessus complex; isolate 3, MAB30, initial reading, generally 3-4 days, read-out: MIC, CLA Initial): 0.5 µg/mL (≈ 0.668 µM) | MIC (M. abscessus complex; isolate 4, massiliense, initial reading, generally 3-4 days, read-out: MIC, CLA Initial): 0.12 µg/mL (≈ 0.16 µM) | MIC (M. abscessus complex; isolate 5, massiliense/subsp. abs hybrid, initial reading, generally 3-4 days, read-out: MIC, CLA Initial): ≤ 0.06 µg/mL | MIC (M. abscessus complex; isolate 6, Type 1 abscessus, initial reading, generally 3-4 days, read-out: MIC, CLA Initial): 0.25 µg/mL (≈ 0.334 µM) | MIC (M. abscessus complex; isolate 7, Type 1 abscessus, initial reading, generally 3-4 days, read-out: MIC, CLA Initial): 0.12 µg/mL (≈ 0.16 µM) | MIC (M. abscessus complex; isolate 8, Type 1 abscessus, initial reading, generally 3-4 days, read-out: MIC, CLA Initial): 0.12 µg/mL (≈ 0.16 µM) | MIC (M. abscessus complex; isolate 9, Type 1 abscessus, initial reading, generally 3-4 days, read-out: MIC, CLA Initial): 2 µg/mL (≈ 2.67 µM) | MIC (M. abscessus complex; isolate 10, Type 1 abscessus, initial reading, generally 3-4 days, read-out: MIC, CLA Initial): 0.25 µg/mL (≈ 0.334 µM) | MIC (M. abscessus complex; isolate 11, Type 6 abscessus, initial reading, generally 3-4 days, read-out: MIC, CLA Initial): 0.12 µg/mL (≈ 0.16 µM) | MIC (M. abscessus complex; isolate 12, Type 6 abscessus, initial reading, generally 3-4 days, read-out: MIC, CLA Initial): 0.25 µg/mL (≈ 0.334 µM) | MIC (M. abscessus complex; isolate 13, Type 6 abscessus, initial reading, generally 3-4 days, read-out: MIC, CLA Initial): 0.25 µg/mL (≈ 0.334 µM) | MIC (M. abscessus complex; isolate 14, Type 6 abscessus, initial reading, generally 3-4 days, read-out: MIC, CLA Initial): ≤ 0.06 µg/mL | MIC (M. abscessus complex; isolate 15, Type 7 abscessus, initial reading, generally 3-4 days, read-out: MIC, CLA Initial): 0.5 µg/mL (≈ 0.668 µM) | MIC (M. abscessus complex; isolate 16, Type 7 abscessus, initial reading, generally 3-4 days, read-out: MIC, CLA Initial): ≤ 0.06 µg/mL | MIC (M. abscessus complex; isolate 17, Type 8 abscessus, initial reading, generally 3-4 days, read-out: MIC, CLA Initial): 0.25 µg/mL (≈ 0.334 µM) | MIC (M. chelonae; 336 h, isolate 18, M. chelonae, extended reading, up to/including 14 days, read-out: MIC, CLA Extended): 2 µg/mL (≈ 2.67 µM) | MIC (M. chelonae; 336 h, isolate 19, M. chelonae, extended reading, up to/including 14 days, read-out: MIC, CLA Extended): 0.5 µg/mL (≈ 0.668 µM) | MIC (M. chelonae; 336 h, isolate 20, M. chelonae, extended reading, up to/including 14 days, read-out: MIC, CLA Extended): 0.5 µg/mL (≈ 0.668 µM) | MIC (M. chelonae; 336 h, isolate 21, M. chelonae, extended reading, up to/including 14 days, read-out: MIC, CLA Extended): 2 µg/mL (≈ 2.67 µM) | MIC (M. chelonae; 336 h, isolate 22, M. chelonae, extended reading, up to/including 14 days, read-out: MIC, CLA Extended): 2 µg/mL (≈ 2.67 µM) | MIC (M. chelonae; isolate 18, M. chelonae, initial reading, generally 3-4 days, read-out: MIC, CLA Initial): 0.25 µg/mL (≈ 0.334 µM) | MIC (M. chelonae; isolate 19, M. chelonae, initial reading, generally 3-4 days, read-out: MIC, CLA Initial): 0.25 µg/mL (≈ 0.334 µM) | MIC (M. chelonae; isolate 20, M. chelonae, initial reading, generally 3-4 days, read-out: MIC, CLA Initial): 0.5 µg/mL (≈ 0.668 µM) | MIC (M. chelonae; isolate 21, M. chelonae, initial reading, generally 3-4 days, read-out: MIC, CLA Initial): 0.5 µg/mL (≈ 0.668 µM) | MIC (M. chelonae; isolate 22, M. chelonae, initial reading, generally 3-4 days, read-out: MIC, CLA Initial): 1 µg/mL (≈ 1.34 µM)
